This assay addresses KRAS G12D (Homo sapiens, UniProt P01116, G12D). In words: GDP-GTP exchange assay (bodipy-GDP/GppNHp, SOS1), KRAS G12D. Format: biochemical. Conditions: bodipy-loaded KRAS G12D 2.5 nM, 4 hours incubation after adding GppNHp-SOS1 mixture. The procedure: The inhibitor potency of the exemplified compounds was determined in a fluorescence based guanine nucleotide exchange assay, which measures the exchange of bodipy-GDP (fluorescently labeled GDP) for GppNHp (Non-hydrolyzable GTP analog) to generate the active state of KRAS in the presence of SOS1 (guanine nucleotide exchange factor). Inhibitors were serially diluted in DMSO and a volume of 0.1 μL was transferred to the wells of a black low volume 384-well plate. 5 μL/well volume of bodipy-loaded KRAS G12C diluted to 5 nM in assay buffer (25 mM Hepes pH 7.5, 50 mM NaCl, 10 mM MgCl2 and 0.01% Brij-35) was added to the plate and pre-incubated with inhibitor for 2 hours at ambient temperature. Appropriate controls (enzyme with no inhibitor or with a G12C inhibitor (AMG-510)) were included on the plate. The exchange was initiated by the addition of a 5 μL/well volume containing 1 mM GppNHp and 300 nM SOS1 in assay buffer. The 10 μL/well reaction concentration of the bodipy-loaded KRAS G12C, GppNHp, and SOS1 were 2.5 nM, 500 uM, and 150 nM, respectively. The reaction plates were incubated at ambient temperature for 2 hours, a time estimated for complete GDP-GTP exchange in the absence of inhibitor. For the KRAS G12D and G12V mutants, similar guanine nucleotide exchange assays were used with 2.5 nM as final concentration for the bodipy loaded KRAS proteins and with 4 hours and 3 hours incubation after adding GppNHp-SOS1 mixture for G12D and G12V respectively. A cyclic peptide described to selectively bind G12D mutant (Sakamoto et al., BBRC 484.3 (2017), 605-611) or internal compounds with confirmed binding were used as positive controls in the assay plates. Fluorescence intensities were measured on a PheraStar plate reader instrument (BMG Labtech) with excitation at 485 nm and emission at 520 nm.
Either GraphPad prism or XLfit was used to analyze the data. The IC50 values were derived by fitting the data to a four parameter logistic equation producing a sigmoidal dose-response curve with a variable Hill coefficient. Prism equation: Y=Bottom+(Top−Bottom)/(1+10^((Log IC50−X)*Hill slope)); XLfit equation: Y=(A+((B−A)/(1+((X/C)^D)))) where X is the logarithm of inhibitor concentration and Y is the response.
The symbol “†” indicates IC50≤100 nM, “††” indicates IC50>100 nM but ≤1 μM; and “†††” indicates IC50 is >1 μM but ≤5 μM, “††††” indicates IC50 is >5 μM but ≤10 μM.

Each structure is given as a SMILES string.

Chain of KRAS G12D (P01116 1-188 isoform P01116-2 G12D): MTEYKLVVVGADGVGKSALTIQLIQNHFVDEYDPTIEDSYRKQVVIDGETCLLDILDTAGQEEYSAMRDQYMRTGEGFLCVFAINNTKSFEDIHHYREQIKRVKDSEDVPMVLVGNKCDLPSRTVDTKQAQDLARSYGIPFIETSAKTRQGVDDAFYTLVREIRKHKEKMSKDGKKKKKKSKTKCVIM

`CN(C)C1CN(c2nc(N3C4CCC3CNC4)c3ccc(-c4cc(O)cc5ccccc45)c(F)c3c2C#N)C1` [Example 1, 1-(3,8-diazabicyclo[3.2.1]octan-8-yl)-3-(3-(dimethylamino)azetidin-1-yl)-5-fluoro-6-(3-hydroxynaphthalen-1-yl)isoquinoline-4-carbonitrile]: the IC50 was no more than 100 nM. With `CN(C)C1CN(c2nc(N3C4CCC3CNC4)c3cc(CCC#N)c(-c4cc(O)cc5ccccc45)c(F)c3c2Cl)C1` [Example 2, 3-(1-(3,8-diazabicyclo[3.2.1]octan-8-yl)-4-chloro-3-(3-(dimethylamino)azetidin-1-yl)-5-fluoro-6-(3-hydroxynaphthalen-1-yl)isoquinolin-7-yl)propanenitrile] the figure was 100 to 1000 nM. As for `Cc1c(N2CC(N(C)C)C2)nc(N2C3CCC2CNC3)c2cc(CCC#N)c(-c3cc(O)cc4ccccc34)c(F)c12` [Example 3, 3-(1-(3,8-diazabicyclo[3.2.1]octan-8-yl)-3-(3-(dimethylamino)azetidin-1-yl)-5-fluoro-6-(3-hydroxynaphthalen-1-yl)-4-methylisoquinolin-7-yl)propanenitrile], the IC50 fell in the range of 100 to 1000 nM. Turning to `CN(C)C1CN(c2nc(N3C4CCC3CNC4)c3cc(CCC#N)c(-c4cc(O)cc5ccccc45)c(F)c3c2-c2ccccc2)C1` [Example 4, 3-(1-(3,8-diazabicyclo[3.2.1]octan-8-yl)-3-(3-(dimethylamino)azetidin-1-yl)-5-fluoro-6-(3-hydroxynaphthalen-1-yl)-4-phenylisoquinolin-7-yl)propanenitrile], the IC50 fell in the range of 5000 to 10000 nM. For the molecule `CN(C)C1CN(c2nc(N3C4CCC3CNC4)c3cc(CCC#N)c(-c4cc(O)cc5ccccc45)c(F)c3c2C2CC2)C1` [Example 5, 3-(1-(3,8-diazabicyclo[3.2.1]octan-8-yl)-4-cyclopropyl-3-(3-(dimethylamino)azetidin-1-yl)-5-fluoro-6-(3-hydroxynaphthalen-1-yl)isoquinolin-7-yl)propanenitrile], the IC50 was 100 to 1000 nM. In the case of `CN(C)C1CN(c2nc(N3C4CCC3CNC4)c3cc(CCC#N)c(-c4cc(O)cc5ccccc45)c(F)c3c2C#N)C1` [Example 6, 1-(3,8-diazabicyclo[3.2.1]octan-8-yl)-7-(2-cyanoethyl)-3-(3-(dimethylamino)azetidin-1-yl)-5-fluoro-6-(3-hydroxynaphthalen-1-yl)isoquinoline-4-carbonitrile], the IC50 was 100 to 1000 nM. Take `CN1CCC[C@H]1COc1nc(N2C3CCC2CNC3)c2cc(CCC#N)c(-c3cc(O)cc4ccccc34)c(F)c2c1C#N` [Example 7, 1-(3,8-diazabicyclo[3.2.1]octan-8-yl)-7-(2-cyanoethyl)-5-fluoro-6-(3-hydroxynaphthalen-1-yl)-3-(((S)-1-methylpyrrolidin-2-yl)methoxy)isoquinoline-4-carbonitrile]: the IC50 was 100 to 1000 nM. On to `CN1CCC(Oc2nc(N3C4CCC3CNC4)c3cc(CCC#N)c(-c4cc(O)cc5ccccc45)c(F)c3c2C#N)CC1` [Example 8, 1-(3,8-diazabicyclo[3.2.1]octan-8-yl)-7-(2-cyanoethyl)-5-fluoro-6-(3-hydroxynaphthalen-1-yl)-3-((1-methylpiperidin-4-yl)oxy)isoquinoline-4-carbonitrile], for which the IC50 lay within 100 to 1000 nM. With `CN(C)Cc1cccc(-c2nc(N3C4CCC3CNC4)c3cc(CCC#N)c(-c4cc(O)cc5ccccc45)c(F)c3c2C#N)c1` [Example 9, 1-(3,8-diazabicyclo[3.2.1]octan-8-yl)-7-(2-cyanoethyl)-3-(3-((dimethylamino)methyl)phenyl)-5-fluoro-6-(3-hydroxynaphthalen-1-yl)isoquinoline-4-carbonitrile] the figure was 100 to 1000 nM; with `CN(C)C1CN(c2nc(N3C[C@H]4CC[C@@H]3CN4)c3cc(CCC#N)c(-c4cc(O)cc5ccccc45)c(F)c3c2C#N)C1` [Example 10, 1-((1R,4R)-2,5-diazabicyclo[2.2.2]octan-2-yl)-7-(2-cyanoethyl)-3-(3-(dimethylamino)azetidin-1-yl)-5-fluoro-6-(3-hydroxynaphthalen-1-yl)isoquinoline-4-carbonitrile], 100 to 1000 nM; with `CN(C)C1CN(c2nc(N3C[C@@H](N)C[C@H]3CO)c3cc(CCC#N)c(-c4cc(O)cc5ccccc45)c(F)c3c2C#N)C1` [Example 11, 1-((2S,4S)-4-amino-2-(hydroxymethyl)pyrrolidin-1-yl)-7-(2-cyanoethyl)-3-(3-(dimethylamino)azetidin-1-yl)-5-fluoro-6-(3-hydroxynaphthalen-1-yl)isoquinoline-4-carbonitrile], 100 to 1000 nM. With `CN(C)C1CN(c2nc(N3CCC(CC#N)C3)c3cc(CCC#N)c(-c4cc(O)cc5ccccc45)c(F)c3c2C#N)C1` (stereo not shown) [Example 12, 7-(2-cyanoethyl)-1-(3-(cyanomethyl)pyrrolidin-1-yl)-3-(3-(dimethylamino)azetidin-1-yl)-5-fluoro-6-(3-hydroxynaphthalen-1-yl)isoquinoline-4-carbonitrile] the figure was no more than 100 nM. As for `CN(C)C1CN(c2nc(N3CC[C@H](N)C3)c3cc(CCC#N)c(-c4cc(O)cc5ccccc45)c(F)c3c2C#N)C1` [Example 13, 1-((S)-3-aminopyrrolidin-1-yl)-7-(2-cyanoethyl)-3-(3-(dimethylamino)azetidin-1-yl)-5-fluoro-6-(3-hydroxynaphthalen-1-yl)isoquinoline-4-carbonitrile], the IC50 is no more than 100 nM. Consider `C[C@@H]1C[C@H](N)CN1c1nc(N2CC(N(C)C)C2)c(C#N)c2c(F)c(-c3cc(O)cc4ccccc34)c(CCC#N)cc12` [Example 14, 1-((2R,4S)-4-amino-2-methylpyrrolidin-1-yl)-7-(2-cyanoethyl)-3-(3-(dimethylamino)azetidin-1-yl)-5-fluoro-6-(3-hydroxynaphthalen-1-yl)isoquinoline-4-carbonitrile], for which the IC50 was no more than 100 nM. On to `N#Cc1c(OC[C@@]23CCCN2C[C@H](F)C3)nc(N2CC3CCC(C2)N3)c2cnc(-c3cc(O)cc4ccccc34)c(F)c12` [Example 15, 1-(3,8-diazabicyclo[3.2.1]octan-3-yl)-5-fluoro-3-(((2R,7aS)-2-fluorotetrahydro-1H-pyrrolizin-7a(5H)-yl)methoxy)-6-(3-hydroxynaphthalen-1-yl)-2,7-naphthyridine-4-carbonitrile], for which the IC50 is no more than 100 nM.

Consider `CCc1c(F)ccc2cc(O)cc(-c3ncc4c(N5CC6CCC(C5)N6)nc(N5CC(C)(N(C)C)C5)c(C#N)c4c3F)c12` [Example 16, 1-(3,8-diazabicyclo[3.2.1]octan-3-yl)-3-(3-(dimethylamino)-3-methylazetidin-1-yl)-6-(8-ethyl-7-fluoro-3-hydroxynaphthalen-1-yl)-5-fluoro-2,7-naphthyridine-4-carbonitrile], for which the IC50 is no more than 100 nM.

For the origin of these results see patent publication US12331063B2, “Hetero-bicyclic inhibitors of KRAS” (Incyte Corporation, priority 2021, dated 2025).
